ChEMBL document CHEMBL1201862, “PubChem BioAssay data set” (2004)
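Exposure lasted 48 hours, with cells grown in 96-well plates and compounds tested at five concentrations. GI50 marks 50% less growth.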 Active and inactive are the calls of the source. Cut-off read from the data, not from the text of the source: active = GI50 up to about 1.1 µM and inactive = higher.

Tests used:
Assay in all cases: NCI anticancer screen, dose series, 48 h
[1] = test system: HT-29
[2] = test system: M14
[3] = test system: MDA-MB-435
[4] = test system: SK-OV-3
[5] = test system: SF-295
[6] = test system: ACHN
[7] = test system: HOP-62
[8] = test system: MOLT-4
[9] = test system: U-251
[10] = test system: A498
[11] = test system: DU-145
[12] = test system: BT-549
[13] = test system: COLO 205
[14] = test system: UACC-62
[15] = test system: NCI-H522
[16] = test system: HCC 2998
[17] = test system: MCF7
[18] = test system: PC-3
[19] = test system: SK-MEL-28
[20] = test system: IGROV-1
[21] = test system: Malme-3M
[22] = test system: HCT-15
[23] = test system: UACC-257
[24] = test system: SF-539
[25] = test system: NCI-H23
[26] = test system: KM12
[27] = test system: MDA-MB-231
[28] = test system: HOP-92
[29] = test system: CCRF-CEM
[30] = test system: OVCAR-5
[31] = test system: TK-10
[32] = test system: SW-620
[33] = test system: EKVX
[34] = test system: SNB-19
[35] = test system: CAKI-1
[36] = test system: HL-60
[37] = test system: NCI/ADR-RES
[38] = test system: OVCAR-3
[39] = test system: SK-MEL-2
[40] = test system: SR
[41] = test system: SF-268
[42] = test system: SK-MEL-5
[43] = test system: UO-31
[44] = test system: MDA-N
[45] = test system: A549
[46] = test system: LOX IMVI
[47] = test system: RPMI-8226
[48] = test system: K562
[49] = test system: 786-0
[50] = test system: HCT-116
[51] = test system: NCI-H460
[52] = test system: OVCAR-8
[53] = test system: Hs-578T

Cc1c(-c2ccccc2)[nH]c2cn[nH]c(=O)c12
GI50 [1]: > 100 µM (inactive) | GI50 [2]: > 100 µM (inactive) | GI50 [3]: > 100 µM (inactive) | GI50 [4]: 42.5 µM (inactive) | GI50 [5]: 41 µM (inactive) | GI50 [6]: > 100 µM (inactive) | GI50 [7]: 50.9 µM (inactive) | GI50 [8]: 83.2 µM (inactive) | GI50 [9]: > 100 µM (inactive) | GI50 [10]: > 100 µM (inactive) | GI50 [11]: > 100 µM (inactive) | GI50 [12]: 75 µM (inactive) | GI50 [13]: > 100 µM (inactive) | GI50 [14]: 59.2 µM (inactive) | GI50 [15]: 86.1 µM (inactive) | GI50 [16]: > 100 µM (inactive) | GI50 [17]: 45.1 µM (inactive) | GI50 [18]: 67.9 µM (inactive) | GI50 [19]: > 100 µM (inactive) | GI50 [20]: > 100 µM (inactive) | GI50 [21]: > 100 µM (inactive) | GI50 [22]: 55.3 µM | GI50 [23]: > 100 µM (inactive) | GI50 [24]: > 100 µM (inactive) | GI50 [25]: > 100 µM (inactive) | GI50 [26]: 83.2 µM (inactive) | GI50 [27]: > 100 µM (inactive) | GI50 [28]: > 100 µM (inactive) | GI50 [29]: 57.1 µM (inactive) | GI50 [30]: > 100 µM (inactive) | GI50 [31]: > 100 µM (inactive) | GI50 [32]: > 100 µM (inactive) | GI50 [33]: 34.6 µM (inactive) | GI50 [34]: > 100 µM (inactive) | GI50 [35]: > 100 µM (inactive) | GI50 [36]: 10.7 µM (inactive) | GI50 [37]: 73.8 µM (inactive) | GI50 [38]: 39.6 µM (inactive) | GI50 [39]: 90.8 µM (inactive) | GI50 [40]: 88.7 µM (inactive) | GI50 [41]: > 100 µM (inactive) | GI50 [42]: 67.9 µM (inactive) | GI50 [43]: 80 µM (inactive) | GI50 [44]: > 100 µM (inactive) | GI50 [45]: > 100 µM (inactive) | GI50 [46]: 70.6 µM (inactive) | GI50 [47]: 74 µM (inactive) | GI50 [48]: 99.8 µM (inactive) | GI50 [49]: > 100 µM (inactive) | GI50 [50]: > 100 µM (inactive) | GI50 [51]: > 100 µM (inactive) | GI50 [52]: > 100 µM (inactive) | GI50 [53]: 74.6 µM (inactive)
